Reference: patent publication US12564595B2, “Prophylactic and therapeutic pharmaceutical agent for HIV infectious diseases characterized by comprising combination of integrase inhibitor and anti-HIV agent” (Shionogi & Co., Ltd., priority 2019, dated 2026)

system: HIV; experiment: microbe, parasite or virus in culture; type: cell-based; conditions: Human immunodeficiency virus 1, MT4, 96 h, read-out: EC50 (50% HIV inhibition concentration), MT-4 cells, HIV, cultured four days, MTT; compounds of formula (I) of (A)
Method: A serial dilution series of test samples was prepared in 96-well microplates (50 μL/well).
100 μL/well in each case were dispensed onto plates having test samples of 2.5×10^5/mL MT-4 cell suspension, and HIV virus solution was then dispensed thereto in the amount of 50 μL/well. Mixing was performed using a plate mixer and culturing was performed for four days in a CO2 incubator. MTT (3-(4,5-dimethylthiazol-2-yl)-2,5-diphenyltetrazolium bromide) liquid was dispensed into each well in the amount of 30 μL in each case. The reaction was conducted for 1 h in a CO2 incubator. 150 μL of supernatant were removed from each well, taking care not to aspirate any cells. 150 μL of cell solution were added, and thorough mixing was performed with a plate mixer until all the cells had been dissolved. The optical absorbance of the mixed plates was measured at two wavelengths: 560 nm/690 nm, with a microplate reader.

| SMILES | EC50 [nM] |
| --- | --- |
| C[C@@H]1CC[C@H]2N(C)C(=O)c3c(O)c(=O)c(-c4nnc(Cc5ccc(F)cc5F)s4)cn3N12 [II-113] | 0.66 |
| CCN1C(=O)c2c(O)c(=O)c(-c3nnc(Cc4ccc(F)cc4F)s3)cn2N2C[C@@H]3CC[C@@H](C3)[C@@H]12 [II-130] | 0.66 |
| CCN1C(=O)c2c(O)c(=O)c(C(=O)NCc3cccc(Cl)c3F)cn2N2[C@H]3COCC3C[C@@H]12 (some centres unmarked) [II-052] | 0.27 |
| CCN1C(=O)c2c(O)c(=O)c(C(=O)NCc3c(F)cc(F)cc3F)cn2N2[C@H](COC)CC[C@@H]12 [II-093] | 0.22 |
| CCN1C(=O)c2c(O)c(=O)c(-c3nnc(Cc4c(F)cc(F)cc4F)s3)cn2N2[C@H](C)CCC[C@@H]12 [II-125] | 1.4 |

system: HIV mutant strain 1 (E138K/G140S/Q148H/N155H); experiment: Test Example 2: resistance evaluation test (HeLa-CD4 reporter), mutant strain 1; type: cell-based; conditions: FC=EC50 of mutant strain/EC50 of wild strain; HeLa-CD4 cells
Method: (§1) A serial dilution series of test samples in 96-well microplates was prepared (50 […]).
(§2) 2.5×10^4/mL of HeLa-CD4 cell suspension was dispensed into each of the microplates containing test sample, in the amount of 100 μL/well, and HIV virus liquid (wild strain and mutant strain) was then dispensed in an amount of 50 μL/well. Mixing was performed using a plate mixer and culturing was performed for three days in a CO2 incubator. After removing the cultured supernatant of each well by suction, 100 μL of the cell solution buffer in the reporter measurement kit was dispensed thereto, and freezing was conducted in a refrigerator (−80° C.). The plates frozen in the refrigerator were defrosted at room temperature, then mixed using a plate mixer and centrifuged for 5 min at 1,200 rpm. The supernatant of each well was divided to 96-well microplates (BLACK) in the amount of 20 μL in each case. The chemiluminescence reagent in the reporter assay kit was dispensed in the amount of 100 μL in each case, and, after reacting for about 1 h at room temperature, the amount of luminescence was measured using a MicroBeta TRILUX.
(§3) The degree of resistance (fold change (FC)) of each mutant strain was also calculated using the following formula. FC=EC50 of mutant strain/EC50 of wild strain (Results)
(§4) The results of the example compounds relating to formula (I) of (A) are shown below. The […] in respect of mutant strain 1 (E138K/G140S/Q148H/N155H) and the FC in respect of mutant strain 2 (E92Q/E138T/G140S/Q148H) are shown in the Table.

| SMILES | FC in respect of mutant strain 1 (E138K/G140S/Q148H/N155H) |
| --- | --- |
| C[C@@H]1CC[C@H]2N(C)C(=O)c3c(O)c(=O)c(-c4nnc(Cc5ccc(F)cc5F)s4)cn3N12 [II-113] | 7.2 |
| CCN1C(=O)c2c(O)c(=O)c(-c3nnc(Cc4ccc(F)cc4F)s3)cn2N2C[C@@H]3CC[C@@H](C3)[C@@H]12 [II-130] | 2.5 |
| CCN1C(=O)c2c(O)c(=O)c(C(=O)NCc3cccc(Cl)c3F)cn2N2[C@H]3COCC3C[C@@H]12 (some centres unmarked) [II-052] | 22 |
| CCN1C(=O)c2c(O)c(=O)c(C(=O)NCc3c(F)cc(F)cc3F)cn2N2[C@H](COC)CC[C@@H]12 [II-093] | 49 |
| CCN1C(=O)c2c(O)c(=O)c(-c3nnc(Cc4c(F)cc(F)cc4F)s3)cn2N2[C@H](C)CCC[C@@H]12 [II-125] | 11 |

system: HIV; experiment: Test Example 3: test for confirmation of combined use effect; type: cell-based; set-up: key to D value (dosewise additivity value): <-0.1 synergy, -0.1 to 0.1 additive, >0.1 antagonism; conditions: combination with compound (B) Compound C (CAI)
From the text: The two compounds in respect of which the effect of combined use was desired to be examined were mixed in various ratios, and the anti-HIV activity (50% HIV inhibiting concentration) for each combination was found by the method of test example 1. […] A brief description of the method of calculating the D value is given below.
The D value that is found by evaluating the anti-HIV activity of respective combinations of M concentrations of compound X1 and N concentrations of compound X2 is calculated by the following mathematical expression 1.
The effect of combined use was evaluated in terms of the D value in accordance with the following criteria • −0.5 to −0.2: strong synergetic effect • −0.2 to −0.1: weak synergetic effect • […]: additive synergetic effect • 0.1 to 0.2: weak antagonism • 0.2 to 0.5: strong antagonism

| SMILES | D value (dosewise additivity value) | effect of combined use |
| --- | --- | --- |
| CCN1C(=O)c2c(O)c(=O)c(C(=O)NCc3cccc(Cl)c3F)cn2N2[C@H]3COCC3C[C@@H]12 (some centres unmarked) [II-052] | 0.038 | Additive (−0.1 to −0.1: additive synergetic effect) |

same assay, conditions: combination with compound (B) Darunavin (PI)

| SMILES | D value (dosewise additivity value) |
| --- | --- |
| CCN1C(=O)c2c(O)c(=O)c(C(=O)NCc3cccc(Cl)c3F)cn2N2[C@H]3COCC3C[C@@H]12 (some centres unmarked) [II-052] | −0.076 |

same assay, conditions: combination with compound (B) Darunavir (PI)

| SMILES | effect of combined use |
| --- | --- |
| CCN1C(=O)c2c(O)c(=O)c(C(=O)NCc3cccc(Cl)c3F)cn2N2[C@H]3COCC3C[C@@H]12 (some centres unmarked) [II-052] | Additive (−0.1 to −0.1: additive synergetic effect) |

same assay, conditions: combination with compound (B) GS-6207 (CAI)

| SMILES | D value (dosewise additivity value) | effect of combined use |
| --- | --- | --- |
| CCN1C(=O)c2c(O)c(=O)c(C(=O)NCc3cccc(Cl)c3F)cn2N2[C@H]3COCC3C[C@@H]12 (some centres unmarked) [II-052] | −0.003 | Additive (−0.1 to −0.1: additive synergetic effect) |

same assay, conditions: combination with compound (B) GSK2838232 (maturation inhibitor)

| SMILES | D value (dosewise additivity value) | effect of combined use |
| --- | --- | --- |
| CCN1C(=O)c2c(O)c(=O)c(C(=O)NCc3cccc(Cl)c3F)cn2N2[C@H]3COCC3C[C@@H]12 (some centres unmarked) [II-052] | −0.009 | Additive (−0.1 to −0.1: additive synergetic effect) |

same assay, conditions: combination with compound (B) Lilpiperine (polymerase inhibitor)

| SMILES | effect of combined use |
| --- | --- |
| CCN1C(=O)c2c(O)c(=O)c(C(=O)NCc3cccc(Cl)c3F)cn2N2[C@H]3COCC3C[C@@H]12 (some centres unmarked) [II-052] | Additive (−0.1 to −0.1: additive synergetic effect) |

same assay, conditions: combination with compound (B) Ramipzin (3TC) (polymerase inhibitor)

| SMILES | D value (dosewise additivity value) | effect of combined use |
| --- | --- | --- |
| CCN1C(=O)c2c(O)c(=O)c(C(=O)NCc3cccc(Cl)c3F)cn2N2[C@H]3COCC3C[C@@H]12 (some centres unmarked) [II-052] | −0.156 | Weak synergy (−0.2 to −0.1: weak synergetic effect) |

same assay, conditions: combination with compound (B) Rilpivirine (polymerase inhibitor)

| SMILES | D value (dosewise additivity value) |
| --- | --- |
| CCN1C(=O)c2c(O)c(=O)c(C(=O)NCc3cccc(Cl)c3F)cn2N2[C@H]3COCC3C[C@@H]12 (some centres unmarked) [II-052] | −0.020 |

system: HIV mutant strain 2 (E92Q/E138T/G140S/Q148H); experiment: Test Example 2: resistance evaluation test (HeLa-CD4 reporter), mutant strain 2; type: cell-based; conditions: FC=EC50 of mutant strain/EC50 of wild strain; HeLa-CD4 cells
Method: as §1, §2, §3, §4

| SMILES | FC in respect of mutant strain 2 (E92Q/E138T/G140S/Q148H) |
| --- | --- |
| C[C@@H]1CC[C@H]2N(C)C(=O)c3c(O)c(=O)c(-c4nnc(Cc5ccc(F)cc5F)s4)cn3N12 [II-113] | 6.5 |
| CCN1C(=O)c2c(O)c(=O)c(-c3nnc(Cc4ccc(F)cc4F)s3)cn2N2C[C@@H]3CC[C@@H](C3)[C@@H]12 [II-130] | 3.9 |
| CCN1C(=O)c2c(O)c(=O)c(C(=O)NCc3cccc(Cl)c3F)cn2N2[C@H]3COCC3C[C@@H]12 (some centres unmarked) [II-052] | 16 |
| CCN1C(=O)c2c(O)c(=O)c(C(=O)NCc3c(F)cc(F)cc3F)cn2N2[C@H](COC)CC[C@@H]12 [II-093] | 25 |
| CCN1C(=O)c2c(O)c(=O)c(-c3nnc(Cc4c(F)cc(F)cc4F)s3)cn2N2[C@H](C)CCC[C@@H]12 [II-125] | 26 |

system: not listed separately; experiment: Test Example 8: metabolic stability test; type: in vitro ADME, human; conditions: human, microsomes, 0.5 h, 0.5 μmol/L, pH 7.4
Method: The extent of metabolization of the compound according to the present invention in the liver was evaluated by reacting commercially available pooled human liver microsomes with the compound according to the present invention for a fixed time and calculating the remaining percentage by comparing the reaction sample with an unreacted sample.
The reaction (oxidative reaction) was conducted for 0 min or 30 min at 37° C. in the presence of 1 mmol/L of NADPH, in a 0.2 mL buffer solution containing 0.5 mg of human liver microsome protein/mL (50 mmol/L Tris-HCl pH 7.4, 150 mmol/L potassium chloride, 10 mmol/L magnesium chloride). After the reaction, 50 μL of reaction liquid were added to 100 μL of methanol/acetonitrile=1/1 (v/v) solution, mixed, and centrifuged for 15 minutes at 3000 rpm. The compound according to the present invention in the centrifuged supernatant was quantified using LC/MS/MS or solid phase extraction (SPE)/MS; the residual amount of the compound according to the present invention after the reaction was calculated, taking the amount of the compound at the 0 min reaction point as 100%.

| SMILES | Remaining percentage [%] |
| --- | --- |
| CCN1C(=O)c2c(O)c(=O)c(C(=O)NCc3cccc(Cl)c3F)cn2N2[C@H]3COCC3C[C@@H]12 (some centres unmarked) [II-052] | 61.6 |

same assay, conditions: pooled human liver microsomes, 30 min at 37° C., NADPH, compound concentration 0.5 μmol/L

| SMILES | Remaining percentage [%] |
| --- | --- |
| C[C@@H]1CC[C@H]2N(C)C(=O)c3c(O)c(=O)c(-c4nnc(Cc5ccc(F)cc5F)s4)cn3N12 [II-113] | 85.3 |
| CCN1C(=O)c2c(O)c(=O)c(-c3nnc(Cc4ccc(F)cc4F)s3)cn2N2C[C@@H]3CC[C@@H](C3)[C@@H]12 [II-130] | 92.9 |
| CCN1C(=O)c2c(O)c(=O)c(C(=O)NCc3c(F)cc(F)cc3F)cn2N2[C@H](COC)CC[C@@H]12 [II-093] | 96.1 |
| CCN1C(=O)c2c(O)c(=O)c(-c3nnc(Cc4c(F)cc(F)cc4F)s3)cn2N2[C@H](C)CCC[C@@H]12 [II-125] | 88.5 |
